Test results as given in patent US10220029B2, “Pharmaceutical composition comprising glutarimide derivatives and use thereof in the treatment of eosinophilic diseases” (OBSCHESTVO S ORGANICHENNOI OTVETSTVENNOSTIYU …, priority 2013, dated 2019).

Tested on: model of atopic dermatitis in mice
Assay: Response index in DNCB-induced atopic (allopathic) dermatitis in mice
Assay type: in vivo, male Balb/c mice
Conditions: n = 12
Description: The model of allopathic dermatitis was realized by a standard method [Mechanism of dinitrochlorobenzene-induced dermatitis in mice: role of specific antibodies in pathogenesis//PLoS One. 2009; 4(11)].
On days 0 and 12 of the study, 100 μL of a 2% solution of 1-chloro-2,4-dinitrobenzene (DNCB, Sigma-Aldrich, US) in 95% ethanol was applied to shaved sites in the backs of male Balb/c mice. On day 17 of the study, to the right “studied” ear of the animals, 20 μL of the alcohol solution of 2% DNCB was applied two times with a one-hour interval. The studied compound and the reference preparation, dexamethasone, were administered by the intragastric route once daily on days 8-17 of the study.
On day 18 of the study, the animals were euthanized in a CO2 camera. The weights of the “studied” and “control” ears were measured. A response index (RI) expressed in percentage of a difference in the weights of the “studied” and “control” ears was calculated.

SMILES: O=C1CCCC(=O)N1CCc1cnc[nH]1 [Compound 1, 1-(2-(1H-imidazol-4-yl)ethyl)piperidine-2,6-dione]
- Response index (%) (0.3 mg/kg intragastric once daily on days 8-17): 74.4 ± 7.3*& %
- Response index (%) (3 mg/kg intragastric once daily on days 8-17): 69.5 ± 8.2*& %
- Response index (%) (30 mg/kg intragastric once daily on days 8-17): 69.1 ± 8*& %
